26 compounds from patent US20230381146A1, “SUBSTITUTED HETEROARYL COMPOUNDS AND USE THEREOF” (HELIOS HUAMING BIOPHARMA CO., LTD., priority 2020, published 2023) can be followed below.

One may read the IC50 as the concentration at which inhibition is half-maximal. Read a high IC50 as weaker potency.

The target of the assay is PAD4 (Homo sapiens, UniProt Q9UM07). Kind of assay: PAD4 Inhibition Assay (citrulline formation from BAEE substrate). Format: biochemical. As to conditions: PAD4 75 nM, 60 minute preincubation at 37° C., 90 minutes. The method, then:
PAD4 was diluted to 75 nM in Assay Buffer (50 mM Tris-HCl, 2 mM CaCl2), 2 mM DTT, 1 mM PMSF in H2O) and added to wells with various concentrations of compound or DMSO vehicle in Eppendorf tubes (final volume was 100 μL). Following a 60 minute preincubation at 37° C., the reaction was initiated by the addition of 10 μL substrate (22 mM BAEE in H2O) at 37° C. The reaction was stopped after 90 minutes by the addition of 25 μL HClO4 (5 M), 125 μL Reagent A (10 g/L diacetyl monoxime and 15 g/L NaCl in H2O) and 250 μL Reagent B (10 mg/mL antipyrine and 1.0 mg/mL FeCl3 diluted in detection buffer containing 25% H2SO4, 25% H3PO4 and 50% H2O) in sequence. This assay was quenched in an ice-bath for 5 minutes after boiling for 30 minutes. The citrulline formation was measured in fluorescence (κ=465 nm) on microplate reader and the IC50 was calculated by GraphPad Prism.

Chain of PAD4 (Q9UM07 whole entry): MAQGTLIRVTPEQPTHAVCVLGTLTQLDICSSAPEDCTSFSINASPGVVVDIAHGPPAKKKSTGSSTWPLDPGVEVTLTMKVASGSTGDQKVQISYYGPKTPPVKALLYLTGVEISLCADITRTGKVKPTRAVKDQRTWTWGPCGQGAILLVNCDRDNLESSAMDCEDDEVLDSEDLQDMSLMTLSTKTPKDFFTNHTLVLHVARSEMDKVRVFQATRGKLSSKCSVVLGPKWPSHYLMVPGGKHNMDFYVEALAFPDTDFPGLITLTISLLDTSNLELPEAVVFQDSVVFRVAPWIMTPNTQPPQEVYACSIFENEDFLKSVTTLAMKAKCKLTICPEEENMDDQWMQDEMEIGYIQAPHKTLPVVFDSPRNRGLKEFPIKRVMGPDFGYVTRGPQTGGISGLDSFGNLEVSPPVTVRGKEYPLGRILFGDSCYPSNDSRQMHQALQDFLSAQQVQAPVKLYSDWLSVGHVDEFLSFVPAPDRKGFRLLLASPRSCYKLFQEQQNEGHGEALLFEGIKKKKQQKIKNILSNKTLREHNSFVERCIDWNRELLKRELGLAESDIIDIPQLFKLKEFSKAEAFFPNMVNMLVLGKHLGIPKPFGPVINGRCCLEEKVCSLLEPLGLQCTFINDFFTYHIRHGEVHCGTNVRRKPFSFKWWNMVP

Compound `N=C(CF)NCCC[C@H](NC(=O)c1cccc(-c2cccc(Cl)c2)c1)c1ncc(-c2ccccc2)o1` [EX-1, (S)-3′-chloro-N-(4-(2-fluoroacetimidamido)-1-(5-phenyloxazol-2-yl)butyl)-[1,1′-biphenyl]-3-carboxamide] showed an IC50 of 200 to 500 nM.
In turn, `N=C(CCl)NCCC[C@H](NC(=O)c1cccc(-c2cccc(Cl)c2)c1)c1ncc(-c2ccccc2)o1` [EX-2, (S)-3′-chloro-N-(4-(2-chloroacetimidamido)-1-(5-phenyloxazol-2-yl)butyl)-[1,1′-biphenyl]-3-carboxamide] registered an IC50 greater than 500 nM.
`CN(C)c1ccc2cc(C(=O)N[C@@H](CCCNC(=N)CCl)c3ncc(-c4ccccc4)o3)ccc2c1` [EX-3, N-[(1S)-4-(2-chloroethanimidamido)-1-(5-phenyl-1,3-oxazol-2-yl)butyl]-6-(dimethylamino)naphthalene-2-carboxamide] returned an IC50 of 200 to 500 nM.
The figure for `CN(C)c1ccc2cc(C(=O)N[C@@H](CCCNC(=N)CF)c3ncc(-c4ccccc4)o3)ccc2c1` [EX-4, (S)-6-(Dimethylamino)-N-(4-(2-fluoroacetimidamido)-1-(5-phenyloxazol-2-yl)butyl)-2-naphthamide] is 200 to 500 nM; for `COc1cccc(-c2cccc(C(=O)N[C@@H](CCCNC(=N)CF)c3ncc(-c4ccccc4)o3)c2)c1` [EX-5, (S)—N-(4-(2-fluoroacetimidamido)-1-(5-phenyloxazol-2-yl)butyl)-3′-methoxy-[1,1′-biphenyl]-3-carboxamide] it is 200 to 500 nM.
Next, `COc1ccc(-c2cccc(C(=O)N[C@@H](CCCNC(=N)CF)c3ncc(-c4ccccc4)o3)c2)cc1` [EX-6, (S)—N-(4-(2-fluoroacetimidamido)-1-(5-phenyloxazol-2-yl)butyl)-4′-methoxy-[1,1′-biphenyl]-3-carboxamide]: 200 to 500 nM.
The compound `CN(C)c1ccc2cc(C(=O)N[C@@H](CCCNC(=N)CF)c3ncc(-c4ccc(Cl)cc4)o3)ccc2c1` [EX-7, (S)—N-(1-(5-(4-chlorophenyl)oxazol-2-yl)-4-(2-fluoroacetimidamido)butyl)-6-(dimethylamino)-2-naphthamide] showed an IC50 greater than 500 nM.
In turn, `CN(C)c1ccc2cc(C(=O)N[C@@H](CCCNC(=N)CF)c3ncc(-c4cccc(F)c4)o3)ccc2c1` [EX-8, (S)-6-(Dimethylamino)-N-(4-(2-fluoroacetimidamido)-1-(5-(3-fluorophenyl)oxazol-2-yl)butyl)-2-naphthamide] gave an IC50 greater than 500 nM.
In the case of `N=C(CF)NCCC[C@H](NC(=O)c1cccc(-c2ccc(CO)cc2)c1)c1ncc(-c2ccc(Cl)cc2)o1` [EX-9, (S)—N-(1-(5-(4-chlorophenyl)oxazol-2-yl)-4-(2-fluoroacetimidamido)butyl)-4′-(hydroxymethyl)-[1,1′-biphenyl]-3-carboxamide], the IC50 was greater than 500 nM.
Next, `COc1cc2c(OC)cccc2cc1C(=O)N[C@@H](CCCNC(=N)CF)c1ncc(-c2ccccc2)o1` [EX-10]: less than 200 nM; `COc1cc2c(OC)cccc2cc1C(=O)N[C@@H](CCCNC(=N)CF)c1ncc(C2CCCC2)o1` [EX-11, (S)-N-(1-(5-Cyclopentyloxazol-2-yl)-4-(2-fluoroacetimidamido)butyl)-3,5-dimethoxy-2-naphthamide]: 200 to 500 nM; `COc1cc2c(OC)cccc2cc1C(=O)N[C@@H](CCCNC(=N)CF)c1ncc(C)o1` [EX-12, (S)-N-(4-(2-fluoroacetimidamido)-1-(5-methyloxazol-2-yl)butyl)-3,5-dimethoxy-2-naphthamide]: greater than 500 nM.
`COc1cc2c(OC)cccc2cc1C(=O)N[C@@H](CCCNC(=N)CF)c1ncc(-c2cccc(Cl)c2)o1` [EX-13, (S)-N-(1-(5-(3-Chlorophenyl)oxazol-2-yl)-4-(2-fluoroacetimidamido)butyl)-3,5-dimethoxy-2-naphthamide] had an IC50 of 200 to 500 nM.
In the case of `COc1cc2c(OC)cccc2cc1C(=O)N[C@@H](CCCNC(=N)CF)c1ncc(-c2cccc(F)c2)o1` [EX-14, (S)-N-(4-(2-Fluoroacetimidamido)-1-(5-(3-fluorophenyl)oxazol-2-yl)butyl)-3,5-dimethoxy-2-naphthamide], the IC50 was in the range of 200 to 500 nM.
Next, `N=C(CF)NCCC[C@H](NC(=O)c1cccc(-c2cc(Cl)ccn2)c1)c1ncc(-c2ccccc2)o1` [EX-15]: greater than 500 nM.
`N=C(CF)NCCC[C@H](NC(=O)c1cccc(N2CCCC2)c1)c1ncc(-c2ccccc2)o1` [EX-16, (S)—N-(4-(2-fluoroacetimidamido)-1-(5-phenyloxazol-2-yl)butyl)-3-(pyrrolidin-1-yl)benzamide] returned an IC50 of 200 to 500 nM.
Next, `COc1ccc(N2CCOCC2)cc1C(=O)N[C@@H](CCCNC(=N)CF)c1ncc(-c2ccccc2)o1` [EX-17, (S)-N-(4-(2-Fluoroacetimidamido)-1-(5-phenyloxazol-2-yl)butyl)-2-methoxy-5-morpholinobenzamide]: greater than 500 nM; `COc1ccc(N2CCN(C)CC2)cc1C(=O)N[C@@H](CCCNC(=N)CF)c1ncc(-c2ccccc2)o1` [EX-18, (S)-N-(4-(2-Fluoroacetimidamido)-1-(5-phenyloxazol-2-yl)butyl)-2-methoxy-5-(4-methylpiperazin-1-yl)benzamide]: 200 to 500 nM.
In turn, `COc1cccc(OC)c1C(=O)N[C@@H](CCCNC(=N)CF)c1ncc(-c2ccc(Cl)cc2)o1` [EX-19] yielded an IC50 of 200 to 500 nM.
In turn, `COc1ccc(-c2cnc([C@H](CCCNC(=N)CF)NC(=O)c3c(OC)cccc3OC)o2)cc1` [EX-20, (S)-N-(4-(2-Fluoroacetimidamido)-1-(5-(4-methoxyphenyl)oxazol-2-yl)butyl)-2,6-dimethoxybenzamide] came in with an IC50 of 200 to 500 nM.
The compound `COc1cccc(OC)c1C(=O)N[C@@H](CCCNC(=N)CF)c1ncc(-c2ccccc2Cl)o1` [EX-21, (S)-N-(1-(5-(2-Chlorophenyl)oxazol-2-yl)-4-(2-fluoroacetimidamido)butyl)-2,6-dimethoxybenzamide] displayed an IC50 of less than 200 nM.
Turning to `COc1cccc(Cl)c1C(=O)N[C@@H](CCCNC(=N)CF)c1ncc(-c2ccc(Cl)cc2)o1` [EX-22, (S)-2-chloro-N-(1-(5-(4-chlorophenyl)oxazol-2-yl)-4-(2-fluoroacetimidamido)butyl)-6-methoxybenzamide], the IC50 was 200 to 500 nM.
The figure for `CN(C)c1cccc(Cl)c1C(=O)N[C@@H](CCCNC(=N)CF)c1ncc(-c2ccc(Cl)cc2)o1` [EX-23, (S)-2-Chloro-N-(1-(5-(4-chlorophenyl)oxazol-2-yl)-4-(2-fluoroacetimidamido)butyl)-6-(dimethylamino)benzamide] is 200 to 500 nM; for `COc1cccc(Cl)c1C(=O)N[C@@H](CCCNC(=N)CF)c1ncc(-c2ccc(F)cc2)o1` [EX-24, (S)-2-Chloro-N-(4-(2-fluoroacetimidamido)-1-(5-(4-fluorophenyl)oxazol-2-yl)butyl)-6-methoxybenzamide] it is less than 200 nM.
In turn, `COc1cccc(Cl)c1C(=O)N[C@@H](CCCNC(=N)CF)c1ncc(-c2cc(F)cc(F)c2)o1` [EX-25, (S)-2-Chloro-N-(1-(5-(3,5-difluorophenyl)oxazol-2-yl)-4-(2-fluoroacetimidamido)butyl)-6-methoxybenzamide] yielded an IC50 of 200 to 500 nM.
As for `COc1cccc(Cl)c1C(=O)N[C@@H](CCCNC(=N)CF)c1ncc(-c2ccccc2Cl)o1` [EX-26, (S)-2-Chloro-N-(1-(5-(2-chlorophenyl)oxazol-2-yl)-4-(2-fluoroacetimidamido)butyl)-6-methoxybenzamide], the IC50 fell in the range of 200 to 500 nM.
